According to patent US7223784B2, “Compounds for the modulation of the glycolysis enzyme and/or transaminase complex” (ScheBo® Biotech AG, priority 2002, dated 2007):

How the values were obtained:
[1] = biological target: cytosolic isoenzyme of the GOT (Homo sapiens, UniProt P17174); test: Effect on activity of GOT isoenzymes in vitro (isoenzymes dissociated by isoelectric focusing), cytosolic isoenzyme; assay type: biochemical; settings: FIG. 1b
Text: (§1) In FIG. 1b is shown the effect of […] (AOA) and hydroxylamine (HA) on the activity of the cytosolic and mitochondrial isoenzyme of the GOT in vitro. The isoenzymes of the GOT were dissociated by an isoelectric focusing. […] The inhibition of the GOT leads to an inhibition of the malate-aspartate shuttle. As a consequence, NAD cannot be recycled, and the glycolysis is inhibited at the stage of the GAPDH.

[2] = biological target: T1, mitochondrial isoenzyme of the GOT (Homo sapiens, UniProt P00505); test: Effect on activity of GOT isoenzymes in vitro (isoenzymes dissociated by isoelectric focusing), mitochondrial isoenzyme; assay type: biochemical; settings: FIG. 1b
T1 sequence (P00505 30-430): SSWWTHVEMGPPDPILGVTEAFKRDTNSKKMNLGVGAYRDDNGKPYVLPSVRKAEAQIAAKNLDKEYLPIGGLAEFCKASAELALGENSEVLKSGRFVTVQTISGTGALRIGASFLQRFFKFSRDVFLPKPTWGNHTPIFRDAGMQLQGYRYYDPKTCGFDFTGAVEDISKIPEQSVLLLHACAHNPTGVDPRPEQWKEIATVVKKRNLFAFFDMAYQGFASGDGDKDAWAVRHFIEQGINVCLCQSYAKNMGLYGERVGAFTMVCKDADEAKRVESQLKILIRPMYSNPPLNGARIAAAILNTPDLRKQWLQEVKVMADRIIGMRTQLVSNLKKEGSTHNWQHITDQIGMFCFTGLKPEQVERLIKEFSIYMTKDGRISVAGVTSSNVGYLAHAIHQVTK
Text: as §1

Chain of cytosolic isoenzyme of the GOT (P17174 whole entry): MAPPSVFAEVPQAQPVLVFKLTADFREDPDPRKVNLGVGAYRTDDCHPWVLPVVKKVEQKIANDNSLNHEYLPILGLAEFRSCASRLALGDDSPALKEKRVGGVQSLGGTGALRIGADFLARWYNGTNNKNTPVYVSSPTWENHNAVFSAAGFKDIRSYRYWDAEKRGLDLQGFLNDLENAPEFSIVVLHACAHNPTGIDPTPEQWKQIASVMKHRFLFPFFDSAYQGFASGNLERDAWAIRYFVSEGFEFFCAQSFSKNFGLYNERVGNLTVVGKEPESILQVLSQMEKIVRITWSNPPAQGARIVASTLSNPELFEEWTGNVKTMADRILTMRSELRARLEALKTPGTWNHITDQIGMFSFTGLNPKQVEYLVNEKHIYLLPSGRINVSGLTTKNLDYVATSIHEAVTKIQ

SMILES	effect on the activity of the cytosolic isoenzyme of the GOT [1]	effect on the activity of the mitochondrial isoenzyme of the GOT [2]
NOCC(=O)O [aminooxyacetate, (aminooxy)acetic acid]	mainly inhibits the cytosolic isoenzyme	
NO [hydroxylamine]	inhibits both isoenzymes	inhibits both isoenzymes
